Assay results reported in ChEMBL document CHEMBL1649364, “Synthesis and antifungal activity of some substituted phenothiazines and related compounds” (2011).
Calls of active or inactive are those of the source. The rule behind the calls is not given here.

Key:
Candida albicans [1] = assay: Antifungal activity against Candida albicans by diffusion test; assay type: functional, organism-based
Candida parapsilosis [2] = assay: Antifungal activity against Candida parapsilosis by diffusion test; assay type: functional, organism-based
Nakaseomyces glabratus [3] = assay: Antifungal activity against Candida glabrata by diffusion test; assay type: functional, organism-based
Pichia kudriavzevii [4] = assay: Antifungal activity against Candida krusei by diffusion test; assay type: functional, organism-based
[5] = tested on: Meyerozyma guilliermondii; assay: Antifungal activity against Candida guilliermondii by diffusion test; assay type: functional, organism-based
Cryptococcus neoformans [6] = assay: Antifungal activity against Cryptococcus neoformans by diffusion test; assay type: functional, organism-based
[7] = Antifungal activity against Aspergillus fumigates by diffusion test; assay type: functional
Aspergillus flavus [8] = assay: Antifungal activity against Aspergillus flavus by diffusion test; assay type: functional, organism-based
Aspergillus niger [9] = assay: Antifungal activity against Aspergillus niger by diffusion test; assay type: functional, organism-based
Aspergillus nidulans [10] = assay: Antifungal activity against Aspergillus nidulans by diffusion test; assay type: functional, organism-based
Aspergillus terreus [11] = assay: Antifungal activity against Aspergillus terreus by diffusion test; assay type: functional, organism-based
[12] = Antifungal activity against Cladophialophora carrionii by diffusion test; assay type: functional
Exophiala spinifera [13] = assay: Antifungal activity against Exophiala spinifera by diffusion test; assay type: functional, organism-based
[14] = Antifungal activity against Exophiala oligosperma by diffusion test; assay type: functional
[15] = Antifungal activity against Exophiala xenobiotica by diffusion test; assay type: functional
Candida albicans [16] = assay: Antifungal activity against Candida albicans by microdilution test; assay type: functional
Candida parapsilosis [17] = assay: Antifungal activity against Candida parapsilosis by microdilution test; assay type: functional
Nakaseomyces glabratus [18] = assay: Antifungal activity against Candida glabrata by microdilution test; assay type: functional
Pichia kudriavzevii [19] = assay: Antifungal activity against Candida krusei by microdilution test; assay type: functional
[20] = tested on: Meyerozyma guilliermondii; assay: Antifungal activity against Candida guilliermondii by microdilution test; assay type: functional
Cryptococcus neoformans [21] = assay: Antifungal activity against Cryptococcus neoformans by microdilution test; assay type: functional
[22] = Antifungal activity against Aspergillus fumigates by microdilution test; assay type: functional
Aspergillus flavus [23] = assay: Antifungal activity against Aspergillus flavus by microdilution test; assay type: functional
Aspergillus niger [24] = assay: Antifungal activity against Aspergillus niger by microdilution test; assay type: functional
Aspergillus nidulans [25] = assay: Antifungal activity against Aspergillus nidulans by microdilution test; assay type: functional, organism-based
Aspergillus terreus [26] = assay: Antifungal activity against Aspergillus terreus by microdilution test; assay type: functional
[27] = Antifungal activity against Cladophialophora carrionii by microdilution test; assay type: functional
Exophiala spinifera [28] = assay: Antifungal activity against Exophiala spinifera by microdilution test; assay type: functional
[29] = Antifungal activity against Exophiala oligosperma by microdilution test; assay type: functional
[30] = Antifungal activity against Exophiala xenobiotica by microdilution test; assay type: functional

Q: With `CN(C)S(=O)(=O)c1ccc2c(c1)Nc1ccccc1S2` as the molecule, how does the Activity (Candida albicans [1]) read?
A: Its Activity is “Active”.

Q: And the Activity (Candida parapsilosis [2])?
A: Its Activity is “Active”.

Q: And the Activity (Nakaseomyces glabratus [3])?
A: Its Activity is “Active”.

Q: And the Activity (Pichia kudriavzevii [4])?
A: Its Activity is “Active”.

Q: And the Activity [5]?
A: The Activity was “Active”.

Q: And the Activity (Cryptococcus neoformans [6])?
A: The Activity was “Active”.

Q: What about the Activity [7] of the same molecule?
A: The Activity was “Active”.

Q: What about the Activity (Aspergillus flavus [8]) of the same molecule?
A: Its Activity is “Active”.

Q: What about the Activity (Aspergillus niger [9]) of the same molecule?
A: Its Activity is “Active”.

Q: What about the Activity (Aspergillus nidulans [10]) of the same molecule?
A: The Activity was “Active”.

Q: And the Activity (Aspergillus terreus [11])?
A: Its Activity is “Active”.

Q: What about the Activity [12] of the same molecule?
A: Its Activity is “Active”.

Q: What about the Activity (Exophiala spinifera [13]) of the same molecule?
A: The Activity was “Active”.

Q: What about the Activity [14] of the same molecule?
A: The Activity was “Active”.

Q: What about the Activity [15] of the same molecule?
A: Its Activity is “Active”.

Q: What about the Activity (Candida albicans [16]) of the same molecule?
A: The Activity was “inactive”.

Q: And the Activity (Candida parapsilosis [17])?
A: Its Activity is “inactive”.

Q: And the Activity (Nakaseomyces glabratus [18])?
A: Its Activity is “inactive”.

Q: What about the Activity (Pichia kudriavzevii [19]) of the same molecule?
A: The Activity was “inactive”.

Q: What about the Activity [20] of the same molecule?
A: Its Activity is “inactive”.

Q: What about the Activity (Cryptococcus neoformans [21]) of the same molecule?
A: Its Activity is “inactive”.

Q: What about the Activity [22] of the same molecule?
A: The Activity was “inactive”.

Q: What about the Activity (Aspergillus flavus [23]) of the same molecule?
A: The Activity was “inactive”.

Q: And the Activity (Aspergillus niger [24])?
A: The Activity was “inactive”.

Q: And the Activity (Aspergillus nidulans [25])?
A: Its Activity is “inactive”.

Q: And the Activity (Aspergillus terreus [26])?
A: The Activity was “inactive”.

Q: What about the Activity [27] of the same molecule?
A: Its Activity is “inactive”.

Q: What about the Activity (Exophiala spinifera [28]) of the same molecule?
A: The Activity was “inactive”.

Q: And the Activity [29]?
A: Its Activity is “inactive”.

Q: What about the Activity [30] of the same molecule?
A: The Activity was “inactive”.
